Values of other authors, collected in patent publication EP4632015A1, “COMPOUNDS FOR USE IN IN VIVO FLUORESCENCE-LIFETIME IMAGING” (Université de Bourgogne, priority 2024, dated 2025).

Conditions: in a biological environment

lifetime	Structure (SMILES)
less than 1 ns	CC1(C)C(/C=C/C=C/C=C/C=C2\N(CCCCS(=O)(=O)[O-])c3ccc4ccccc4c3C2(C)C)=[N+](CCCCS(=O)(=O)[O-])c2ccc3ccccc3c21.[Na+] [ICG]
less than 1 ns	CC1(C)C(=CC=C2CCCC(C=CC3=[N+](CCCCCC(=O)[O-])c4ccc(S(=O)(=O)[O-])cc4C3(C)C)=C2Oc2ccc(S(=O)(=O)[O-])cc2)N(CCCCS(=O)(=O)[O-])c2ccc(S(=O)(=O)[O-])cc21.[Na+].[Na+].[Na+].[Na+] [IRDye800CW]
